Laboratory results reported in patent publication US5672715A, “Herbicidal substituted 3-aryl-pyrazoles” (Monsanto Company, priority 1995, dated 1997).

Columns and labels:
Type in all cases: in vivo
Common Chickweed [1] = assay: pre-emergence herbicide test; settings: pre-emergence, 0.25 lb/A; read-out: % plant inhibition
Outline: (§1)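 Greenhouse pan assay in which seeds lie under a treated topsoil cover; carrier was acetone or water. Inhibition (%) was recorded about 14 days post-treatment.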

Rape [2] = assay: pre-emergence herbicide test; settings: pre-emergence, 0.25 lb/A; read-out: % plant inhibition
Outline: as §1

Velvetleaf [3] = assay: pre-emergence herbicide test; settings: Abutilon theophrasti, pre-emergence, 0.25 lb/A; read-out: % plant inhibition
Outline: as §1

Soybean [4] = assay: pre-emergence herbicide test; settings: Glycine max, pre-emergence, 0.25 lb/A; read-out: % plant inhibition
Outline: as §1

Green Foxtail [5] = assay: pre-emergence herbicide test; settings: Setaria viridis, pre-emergence; 0.25 lb/A; read-out: % plant inhibition
Outline: as §1

Blackgrass [6] = assay: pre-emergence herbicide test; settings: Alopecurus myosuroides, pre-emergence, 0.25 lb/A; read-out: % plant inhibition
Outline: as §1

Birdseye Speedwell [7] = assay: pre-emergence herbicide test; settings: pre-emergence, 0.25 lb/A; read-out: % plant inhibition
Outline: as §1

Giant Foxtail [8] = assay: pre-emergence herbicide test; settings: Setaria faberi, pre-emergence, 0.25 lb/A; read-out: % plant inhibition
Outline: as §1

Barnyardgrass [9] = assay: pre-emergence herbicide test; settings: Echinochloa crus-galli, pre-emergence, 0.25 lb/A; read-out: % plant inhibition
Outline: as §1

Wheat [10] = assay: pre-emergence herbicide test; settings: Triticum aestivum, pre-emergence, 0.25 lb/A; read-out: % plant inhibition
Outline: as §1

Morning Glory [11] = assay: pre-emergence herbicide test; settings: Ipomoea, pre-emergence, 0.25 lb/A; read-out: % plant inhibition
Outline: as §1

Downy Brome [12] = assay: pre-emergence herbicide test; settings: Bromus tectorum, pre-emergence, 0.25 lb/A; read-out: % plant inhibition
Outline: as §1

Wild Oats [13] = assay: pre-emergence herbicide test; settings: Avena fatua, pre-emergence, 0.25 lb/A; read-out: % plant inhibition
Outline: as §1

Cocklebur [14] = assay: pre-emergence herbicide test; settings: Xanthium strumarium, pre-emergence, 0.25 lb/A; read-out: % plant inhibition
Outline: as §1

Bedstraw Catchweed [15] = assay: pre-emergence herbicide test; settings: Galium aparine, pre-emergence, 0.25 lb/A; read-out: % plant inhibition
Outline: as §1

Corn [16] = assay: pre-emergence herbicide test; settings: Zea mays, pre-emergence, 0.25 lb/A; read-out: % plant inhibition
Outline: as §1

Seedling Johnsongrass [17] = assay: pre-emergence herbicide test; settings: Sorghum halepense, pre-emergence, 0.25 lb/A; read-out: % plant inhibition
Outline: as §1

Common Chickweed [18] = assay: post-emergence herbicide test; settings: post-emergence, 0.25 lb/A; read-out: % plant inhibition
Outline: (§2)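 Soil pans seeded, covered and leveled; grown in greenhouse 2–3 weeks. Sprayed individually (atomizer, 10 psig, 200 gallons/acre). Percent inhibition recorded.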

Rape [19] = assay: post-emergence herbicide test; settings: post-emergence, 0.25 lb/A; read-out: % plant inhibition
Outline: as §2

Velvetleaf [20] = assay: post-emergence herbicide test; settings: Abutilon theophrasti, post-emergence, 0.25 lb/A; read-out: % plant inhibition
Outline: as §2

Soybean [21] = assay: post-emergence herbicide test; settings: Glycine max, post-emergence, 0.25 lb/A; read-out: % plant inhibition
Outline: as §2

Green Foxtail [22] = assay: post-emergence herbicide test; settings: Setaria viridis, post-emergence, 0.25 lb/A; read-out: % plant inhibition
Outline: as §2

Blackgrass [23] = assay: post-emergence herbicide test; settings: Alopecurus myosuroides, post-emergence, 0.25 lb/A; read-out: % plant inhibition
Outline: as §2

Birdseye Speedwell [24] = assay: post-emergence herbicide test; settings: post-emergence, 0.25 lb/A; read-out: % plant inhibition
Outline: as §2

Giant Foxtail [25] = assay: post-emergence herbicide test; settings: Setaria faberi, post-emergence, 0.25 lb/A; read-out: % plant inhibition
Outline: as §2

Barnyardgrass [26] = assay: post-emergence herbicide test; settings: Echinochloa crus-galli, post-emergence, 0.25 lb/A; read-out: % plant inhibition
Outline: as §2

Wheat [27] = assay: post-emergence herbicide test; settings: Triticum aestivum, post-emergence, 0.25 lb/A; read-out: % plant inhibition
Outline: as §2

Morning Glory [28] = assay: post-emergence herbicide test; settings: Ipomoea, post-emergence, 0.25 lb/A; read-out: % plant inhibition
Outline: as §2

Downy Brome [29] = assay: post-emergence herbicide test; settings: Bromus tectorum, post-emergence, 0.25 lb/A; read-out: % plant inhibition
Outline: as §2

Wild Oats [30] = assay: post-emergence herbicide test; settings: Avena fatua, post-emergence, 0.25 lb/A; read-out: % plant inhibition
Outline: as §2

Cocklebur [31] = assay: post-emergence herbicide test; settings: Xanthium strumarium, post-emergence, 0.25 lb/A; read-out: % plant inhibition
Outline: as §2

Bedstraw Catchweed [32] = assay: post-emergence herbicide test; settings: Galium aparine, post-emergence, 0.25 lb/A; read-out: % plant inhibition
Outline: as §2

Corn [33] = assay: post-emergence herbicide test; settings: Zea mays, post-emergence, 0.25 lb/A; read-out: % plant inhibition
Outline: as §2

Seedling Johnsongrass [34] = assay: post-emergence herbicide test; settings: Sorghum halepense, post-emergence, 0.25 lb/A; read-out: % plant inhibition
Outline: as §2

| Compound | inhibition at 280.212 g/ha (Common Chickweed [1]) [%] | inhibition at 280.212 g/ha (Rape [2]) [%] | inhibition at 280.212 g/ha (Velvetleaf [3]) [%] | inhibition at 280.212 g/ha (Soybean [4]) [%] | inhibition at 280.212 g/ha (Green Foxtail [5]) [%] | inhibition at 280.212 g/ha (Blackgrass [6]) [%] | inhibition at 280.212 g/ha (Birdseye Speedwell [7]) [%] | inhibition at 280.212 g/ha (Giant Foxtail [8]) [%] | inhibition at 280.212 g/ha (Barnyardgrass [9]) [%] | inhibition at 280.212 g/ha (Wheat [10]) [%] | inhibition at 280.212 g/ha (Morning Glory [11]) [%] | inhibition at 280.212 g/ha (Downy Brome [12]) [%] | inhibition at 280.212 g/ha (Wild Oats [13]) [%] | inhibition at 280.212 g/ha (Cocklebur [14]) [%] | inhibition at 280.212 g/ha (Bedstraw Catchweed [15]) [%] | inhibition at 280.212 g/ha (Corn [16]) [%] | inhibition at 280.212 g/ha (Seedling Johnsongrass [17]) [%] | inhibition at 280.212 g/ha (Common Chickweed [18]) [%] | inhibition at 280.212 g/ha (Rape [19]) [%] | inhibition at 280.212 g/ha (Velvetleaf [20]) [%] | also measured |
| --- | --- | --- | --- | --- | --- | --- | --- | --- | --- | --- | --- | --- | --- | --- | --- | --- | --- | --- | --- | --- | --- |
| Cc1c(-c2cc(CSC(C)C)c(Cl)cc2F)nn(C)c1C(F)(F)F [Compound 29] | 90 | 15 | 70 | 20 | 95 | 40 | 70 | 95 | 80 | 0 | 65 | 10 | 15 | 15 | 70 | 30 | 100 | 95 | 100 | 99 | inhibition at 280.212 g/ha (Soybean [21]): 90%; inhibition at 280.212 g/ha (Green Foxtail [22]): 95%; inhibition at 280.212 g/ha (Blackgrass [23]): 70%; inhibition at 280.212 g/ha (Birdseye Speedwell [24]): 100%; inhibition at 280.212 g/ha (Giant Foxtail [25]): 65%; inhibition at 280.212 g/ha (Barnyardgrass [26]): 90%; inhibition at 280.212 g/ha (Wheat [27]): 12%; inhibition at 280.212 g/ha (Morning Glory [28]): 90%; inhibition at 280.212 g/ha (Downy Brome [29]): 70%; inhibition at 280.212 g/ha (Wild Oats [30]): 75%; inhibition at 280.212 g/ha (Cocklebur [31]): 90%; inhibition at 280.212 g/ha (Bedstraw Catchweed [32]): 100%; inhibition at 280.212 g/ha (Corn [33]): 20%; inhibition at 280.212 g/ha (Seedling Johnsongrass [34]): 90% |
| CC(=O)CCCOC(=O)c1cc(-c2nn(C)c(C(F)(F)F)c2C)c(F)cc1Cl [Compound 53] | 40 | 5 | 85 | 0 | 100 | 15 | 70 | 9 | 85 | 0 | 80 | 15 | 5 | 15 | 50 | 5 | 75 | 90 | 98 | 100 | inhibition at 280.212 g/ha (Soybean [21]): 75%; inhibition at 280.212 g/ha (Green Foxtail [22]): 80%; inhibition at 280.212 g/ha (Blackgrass [23]): 25%; inhibition at 280.212 g/ha (Birdseye Speedwell [24]): 95%; inhibition at 280.212 g/ha (Giant Foxtail [25]): 75%; inhibition at 280.212 g/ha (Barnyardgrass [26]): 70%; inhibition at 280.212 g/ha (Wheat [27]): 16%; inhibition at 280.212 g/ha (Morning Glory [28]): 99%; inhibition at 280.212 g/ha (Downy Brome [29]): 45%; inhibition at 280.212 g/ha (Wild Oats [30]): 40%; inhibition at 280.212 g/ha (Cocklebur [31]): 100%; inhibition at 280.212 g/ha (Bedstraw Catchweed [32]): 95%; inhibition at 280.212 g/ha (Corn [33]): 7%; inhibition at 280.212 g/ha (Seedling Johnsongrass [34]): 75% |
